Experimental data from ChEMBL document CHEMBL3885881, “DrugMatrix”.

Species on record: Rattus norvegicus
Assay: DrugMatrix - Regimen: Daily Repeat
Type: toxicity, organism-based, Sprague-Dawley
Parameters: regimen Daily Repeat, gender Male, age 6-8 weeks
Conditions: in vivo, po, route oral GAVAGE, vehicle .5 % CMC; for ABSOLUTE BASOPHIL / ABSOLUTE EOSINOPHIL / ABSOLUTE LYMPHOCYTE / ABSOLUTE MONOCYTE / ABSOLUTE SEGMENTED NEUTROPHIL / BASOPHIL / EOSINOPHIL / ERYTHROCYTE COUNT / HEMATOCRIT / HEMOGLOBIN / LEUKOCYTE COUNT / LYMPHOCYTE / MEAN CORPUSCULAR HEMOGLOBIN / MEAN CORPUSCULAR HEMOGLOBIN CONCENTRATION / MEAN CORPUSCULAR VOLUME / MONOCYTE / NEUTROPHIL / NUCLEATED RED BLOOD CELLS / PLATELET COUNT: tissue Blood; for ALANINE AMINOTRANSFERASE / ALBUMIN / ALKALINE PHOSPHATASE / ASPARTATE AMINOTRANSFERASE / BLOOD UREA NITROGEN / CARBON DIOXIDE / CHLORIDE / CHOLESTEROL / CREATINE PHOSPHOKINASE / CREATININE / GLUCOSE / LACTATE DEHYDROGENASE / LIPASE / PHOSPHORUS / POTASSIUM / SODIUM / TOTAL BILIRUBIN / TOTAL PROTEIN / URIC ACID: tissue Plasma
[1] = 200 mg/kg, 72 h, dose level Low, time 3 day
[2] = 200 mg/kg, 120 h, dose level Low, time 5 day
[3] = 1200 mg/kg, 72 h, dose level High, time 3 day
[4] = 1200 mg/kg, 120 h, dose level High, time 5 day

Compound: COc1cc(C(=O)NC2CCCNC2)cc(OC)c1OC (configuration not stated) [TROXIPIDE]
- ABSOLUTE BASOPHIL [1]: 0 CELLS/uL
- ABSOLUTE EOSINOPHIL [1]: 136.33 CELLS/uL
- ABSOLUTE LYMPHOCYTE [1]: 11684 CELLS/uL
- ABSOLUTE MONOCYTE [1]: 203.67 CELLS/uL
- ABSOLUTE SEGMENTED NEUTROPHIL [1]: 809.33 CELLS/uL
- BASOPHIL [1]: 0%
- EOSINOPHIL [1]: 1%
- ERYTHROCYTE COUNT [1]: 5.48 x10E6/uL
- HEMATOCRIT [1]: 34.2%
- HEMOGLOBIN [1]: 12.97 G/DL
- LEUKOCYTE COUNT [1]: 12.83 x10E3/uL
- LYMPHOCYTE [1]: 91%
- MEAN CORPUSCULAR HEMOGLOBIN [1]: 23.67 pg
- MEAN CORPUSCULAR HEMOGLOBIN CONCENTRATION [1]: 37.9 G/DL
- MEAN CORPUSCULAR VOLUME [1]: 62.43 fL
- MONOCYTE [1]: 1.67%
- NEUTROPHIL [1]: 6.33%
- NUCLEATED RED BLOOD CELLS [1]: 0.33 /100WBC
- PLATELET COUNT [1]: 1247.33 x10E3/uL
- ALANINE AMINOTRANSFERASE [1]: 38.67 u/L
- ALBUMIN [1]: 4.37 G/DL
- ALKALINE PHOSPHATASE [1]: 413.67 u/L
- ASPARTATE AMINOTRANSFERASE [1]: 80 u/L
- BLOOD UREA NITROGEN [1]: 14 mg/dL
- CARBON DIOXIDE [1]: 26.33 mmol/L
- CHLORIDE [1]: 106 MEQ/L
- CHOLESTEROL [1]: 67 mg/dL
- CREATINE PHOSPHOKINASE [1]: 457.67 u/L
- CREATININE [1]: 0.16 mg/dL
- GLUCOSE [1]: 165 mg/dL
- LACTATE DEHYDROGENASE [1]: 90.67 u/L
- LIPASE [1]: 9 u/L
- PHOSPHORUS [1]: 13.6 mg/dL
- POTASSIUM [1]: 6.02 MEQ/L
- SODIUM [1]: 146.67 MEQ/L
- TOTAL BILIRUBIN [1]: 0.23 mg/dL
- TOTAL PROTEIN [1]: 5.87 G/DL
- URIC ACID [1]: 1.57 mg/dL
- ABSOLUTE BASOPHIL [2]: 0 CELLS/uL
- ABSOLUTE EOSINOPHIL [2]: 142.33 CELLS/uL
- ABSOLUTE LYMPHOCYTE [2]: 13091.33 CELLS/uL
- ABSOLUTE MONOCYTE [2]: 94.33 CELLS/uL
- ABSOLUTE SEGMENTED NEUTROPHIL [2]: 905.33 CELLS/uL
- BASOPHIL [2]: 0%
- EOSINOPHIL [2]: 1%
- ERYTHROCYTE COUNT [2]: 5.5 x10E6/uL
- HEMATOCRIT [2]: 35.17%
- HEMOGLOBIN [2]: 13.37 G/DL
- LEUKOCYTE COUNT [2]: 14.23 x10E3/uL
- LYMPHOCYTE [2]: 92%
- MEAN CORPUSCULAR HEMOGLOBIN [2]: 24.33 pg
- MEAN CORPUSCULAR HEMOGLOBIN CONCENTRATION [2]: 38.03 G/DL
- MEAN CORPUSCULAR VOLUME [2]: 63.97 fL
- MONOCYTE [2]: 0.67%
- NEUTROPHIL [2]: 6.33%
- NUCLEATED RED BLOOD CELLS [2]: 0 /100WBC
- PLATELET COUNT [2]: 1300.67 x10E3/uL
- ALANINE AMINOTRANSFERASE [2]: 40.33 u/L
- ALBUMIN [2]: 4.33 G/DL
- ALKALINE PHOSPHATASE [2]: 383 u/L
- ASPARTATE AMINOTRANSFERASE [2]: 84.33 u/L
- BLOOD UREA NITROGEN [2]: 16.67 mg/dL
- CARBON DIOXIDE [2]: 24.67 mmol/L
- CHLORIDE [2]: 109 MEQ/L
- CHOLESTEROL [2]: 69 mg/dL
- CREATINE PHOSPHOKINASE [2]: 241.67 u/L
- CREATININE [2]: 0.18 mg/dL
- GLUCOSE [2]: 177.67 mg/dL
- LACTATE DEHYDROGENASE [2]: 230 u/L
- LIPASE [2]: 9 u/L
- PHOSPHORUS [2]: 14 mg/dL
- POTASSIUM [2]: 5.49 MEQ/L
- SODIUM [2]: 147.33 MEQ/L
- TOTAL BILIRUBIN [2]: 0.23 mg/dL
- TOTAL PROTEIN [2]: 6.57 G/DL
- URIC ACID [2]: 1.8 mg/dL
- ABSOLUTE BASOPHIL [3]: 0 CELLS/uL
- ABSOLUTE EOSINOPHIL [3]: 0 CELLS/uL
- ABSOLUTE LYMPHOCYTE [3]: 8315.67 CELLS/uL
- ABSOLUTE MONOCYTE [3]: 238.67 CELLS/uL
- ABSOLUTE SEGMENTED NEUTROPHIL [3]: 579 CELLS/uL
- BASOPHIL [3]: 0%
- EOSINOPHIL [3]: 0%
- ERYTHROCYTE COUNT [3]: 5.66 x10E6/uL
- HEMATOCRIT [3]: 34.93%
- HEMOGLOBIN [3]: 13.13 G/DL
- LEUKOCYTE COUNT [3]: 9.13 x10E3/uL
- LYMPHOCYTE [3]: 91%
- MEAN CORPUSCULAR HEMOGLOBIN [3]: 23.23 pg
- MEAN CORPUSCULAR HEMOGLOBIN CONCENTRATION [3]: 37.6 G/DL
- MEAN CORPUSCULAR VOLUME [3]: 61.73 fL
- MONOCYTE [3]: 2.33%
- NEUTROPHIL [3]: 6.67%
- NUCLEATED RED BLOOD CELLS [3]: 0 /100WBC
- PLATELET COUNT [3]: 1475 x10E3/uL
- ALANINE AMINOTRANSFERASE [3]: 56 u/L
- ALBUMIN [3]: 4.5 G/DL
- ALKALINE PHOSPHATASE [3]: 344 u/L
- ASPARTATE AMINOTRANSFERASE [3]: 88 u/L
- BLOOD UREA NITROGEN [3]: 12.67 mg/dL
- CARBON DIOXIDE [3]: 27.67 mmol/L
- CHLORIDE [3]: 106.33 MEQ/L
- CHOLESTEROL [3]: 80.33 mg/dL
- CREATINE PHOSPHOKINASE [3]: 209.33 u/L
- CREATININE [3]: 0.21 mg/dL
- GLUCOSE [3]: 138.33 mg/dL
- LACTATE DEHYDROGENASE [3]: 178 u/L
- LIPASE [3]: 8.67 u/L
- PHOSPHORUS [3]: 11.63 mg/dL
- POTASSIUM [3]: 6.42 MEQ/L
- SODIUM [3]: 150.7 MEQ/L
- TOTAL BILIRUBIN [3]: 0.2 mg/dL
- TOTAL PROTEIN [3]: 6.4 G/DL
- URIC ACID [3]: 1.2 mg/dL
- ABSOLUTE BASOPHIL [4]: 0 CELLS/uL
- ABSOLUTE EOSINOPHIL [4]: 55.33 CELLS/uL
- ABSOLUTE LYMPHOCYTE [4]: 13790.67 CELLS/uL
- ABSOLUTE MONOCYTE [4]: 0 CELLS/uL
- ABSOLUTE SEGMENTED NEUTROPHIL [4]: 1154 CELLS/uL
- BASOPHIL [4]: 0%
- EOSINOPHIL [4]: 0.33%
- ERYTHROCYTE COUNT [4]: 5.99 x10E6/uL
- HEMATOCRIT [4]: 37.5%
- HEMOGLOBIN [4]: 13.97 G/DL
- LEUKOCYTE COUNT [4]: 15 x10E3/uL
- LYMPHOCYTE [4]: 92%
- MEAN CORPUSCULAR HEMOGLOBIN [4]: 23.33 pg
- MEAN CORPUSCULAR HEMOGLOBIN CONCENTRATION [4]: 37.23 G/DL
- MEAN CORPUSCULAR VOLUME [4]: 62.67 fL
- MONOCYTE [4]: 0%
- NEUTROPHIL [4]: 7.67%
- NUCLEATED RED BLOOD CELLS [4]: 0 /100WBC
- PLATELET COUNT [4]: 1467.33 x10E3/uL
- ALANINE AMINOTRANSFERASE [4]: 59.33 u/L
- ALBUMIN [4]: 4.1 G/DL
- ALKALINE PHOSPHATASE [4]: 355.33 u/L
- ASPARTATE AMINOTRANSFERASE [4]: 81.33 u/L
- BLOOD UREA NITROGEN [4]: 15.33 mg/dL
- CARBON DIOXIDE [4]: 24.33 mmol/L
- CHLORIDE [4]: 106.33 MEQ/L
- CHOLESTEROL [4]: 65.33 mg/dL
- CREATINE PHOSPHOKINASE [4]: 150 u/L
- CREATININE [4]: 0.2 mg/dL
- GLUCOSE [4]: 176 mg/dL
- LACTATE DEHYDROGENASE [4]: 88.67 u/L
- LIPASE [4]: 8.33 u/L
- PHOSPHORUS [4]: 13.83 mg/dL
- POTASSIUM [4]: 6.2 MEQ/L
- SODIUM [4]: 146.57 MEQ/L
- TOTAL BILIRUBIN [4]: 0.17 mg/dL
- TOTAL PROTEIN [4]: 6.17 G/DL
- URIC ACID [4]: 2.43 mg/dL
